The values below come from ChEMBL document CHEMBL1140446, “Designed multiple ligands. An emerging drug discovery paradigm” (J Med Chem, 2005).

pIC50, pKi: −log10 of the molar value.

Experiment [1] deals with Prostaglandin G/H synthase 1 (Homo sapiens, UniProt P23219).
Description: Inhibitory concentration against prostaglandin G/H synthase 1
The target in another experiment is T1, Thromboxane A2 receptor (Homo sapiens, UniProt P21731).
T1 sequence (P21731 whole entry): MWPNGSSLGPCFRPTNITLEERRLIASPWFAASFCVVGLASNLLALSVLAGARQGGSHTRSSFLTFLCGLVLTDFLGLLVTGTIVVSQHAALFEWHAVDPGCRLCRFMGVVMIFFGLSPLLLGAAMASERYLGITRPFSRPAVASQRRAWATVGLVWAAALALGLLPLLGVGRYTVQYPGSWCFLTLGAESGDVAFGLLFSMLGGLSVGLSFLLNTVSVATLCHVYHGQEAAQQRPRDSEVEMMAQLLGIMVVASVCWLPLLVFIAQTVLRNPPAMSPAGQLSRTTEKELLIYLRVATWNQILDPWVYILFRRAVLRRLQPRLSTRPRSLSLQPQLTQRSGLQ

The next experiment deals with Histamine H1 receptor (Homo sapiens, UniProt P35367).
Chain of Histamine H1 receptor (P35367 whole entry): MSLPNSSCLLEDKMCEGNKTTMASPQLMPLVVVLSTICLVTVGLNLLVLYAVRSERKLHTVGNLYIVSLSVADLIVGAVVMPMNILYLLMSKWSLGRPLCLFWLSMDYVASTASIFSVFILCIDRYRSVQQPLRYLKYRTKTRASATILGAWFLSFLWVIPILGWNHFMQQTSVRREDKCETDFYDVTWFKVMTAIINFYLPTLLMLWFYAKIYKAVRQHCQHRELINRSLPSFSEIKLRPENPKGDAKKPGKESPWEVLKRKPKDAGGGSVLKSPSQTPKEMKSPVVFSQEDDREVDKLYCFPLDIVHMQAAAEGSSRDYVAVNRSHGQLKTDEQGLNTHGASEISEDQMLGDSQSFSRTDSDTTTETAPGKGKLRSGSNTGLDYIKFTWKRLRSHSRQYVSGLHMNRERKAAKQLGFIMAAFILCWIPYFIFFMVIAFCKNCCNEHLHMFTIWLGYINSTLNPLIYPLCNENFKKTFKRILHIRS
Experiment [2] deals with T2, Adrenergic receptor alpha-1 (Homo sapiens, UniProt P35348+P25100+P35368).
T2 sequence (P35348 whole entry): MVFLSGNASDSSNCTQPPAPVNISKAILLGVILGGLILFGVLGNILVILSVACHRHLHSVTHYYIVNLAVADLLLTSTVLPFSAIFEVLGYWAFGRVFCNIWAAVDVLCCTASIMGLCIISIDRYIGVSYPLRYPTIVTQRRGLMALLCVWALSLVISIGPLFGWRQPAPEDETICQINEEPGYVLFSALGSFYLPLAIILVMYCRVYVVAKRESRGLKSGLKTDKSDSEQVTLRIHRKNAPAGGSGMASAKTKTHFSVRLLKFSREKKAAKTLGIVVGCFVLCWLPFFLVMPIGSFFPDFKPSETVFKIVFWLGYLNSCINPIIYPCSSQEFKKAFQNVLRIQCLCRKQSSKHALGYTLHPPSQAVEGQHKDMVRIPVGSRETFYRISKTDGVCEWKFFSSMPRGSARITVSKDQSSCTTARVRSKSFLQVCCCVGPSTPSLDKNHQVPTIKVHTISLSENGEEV
T2 sequence (P25100 whole entry): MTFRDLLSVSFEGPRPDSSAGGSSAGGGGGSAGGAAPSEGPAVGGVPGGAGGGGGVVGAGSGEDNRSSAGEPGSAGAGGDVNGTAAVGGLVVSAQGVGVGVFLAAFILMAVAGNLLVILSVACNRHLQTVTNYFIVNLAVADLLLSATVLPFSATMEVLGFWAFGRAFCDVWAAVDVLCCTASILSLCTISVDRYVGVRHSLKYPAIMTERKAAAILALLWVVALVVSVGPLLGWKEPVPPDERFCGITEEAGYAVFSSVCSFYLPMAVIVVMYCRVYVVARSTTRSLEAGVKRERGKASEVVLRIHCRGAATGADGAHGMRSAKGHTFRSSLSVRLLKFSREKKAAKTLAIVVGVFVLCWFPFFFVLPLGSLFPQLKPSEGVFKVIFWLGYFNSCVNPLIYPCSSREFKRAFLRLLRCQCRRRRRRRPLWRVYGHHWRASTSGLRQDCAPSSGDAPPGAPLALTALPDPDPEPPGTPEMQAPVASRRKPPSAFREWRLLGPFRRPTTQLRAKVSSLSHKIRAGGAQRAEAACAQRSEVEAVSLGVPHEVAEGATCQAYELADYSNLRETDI
T2 sequence (P35368 whole entry): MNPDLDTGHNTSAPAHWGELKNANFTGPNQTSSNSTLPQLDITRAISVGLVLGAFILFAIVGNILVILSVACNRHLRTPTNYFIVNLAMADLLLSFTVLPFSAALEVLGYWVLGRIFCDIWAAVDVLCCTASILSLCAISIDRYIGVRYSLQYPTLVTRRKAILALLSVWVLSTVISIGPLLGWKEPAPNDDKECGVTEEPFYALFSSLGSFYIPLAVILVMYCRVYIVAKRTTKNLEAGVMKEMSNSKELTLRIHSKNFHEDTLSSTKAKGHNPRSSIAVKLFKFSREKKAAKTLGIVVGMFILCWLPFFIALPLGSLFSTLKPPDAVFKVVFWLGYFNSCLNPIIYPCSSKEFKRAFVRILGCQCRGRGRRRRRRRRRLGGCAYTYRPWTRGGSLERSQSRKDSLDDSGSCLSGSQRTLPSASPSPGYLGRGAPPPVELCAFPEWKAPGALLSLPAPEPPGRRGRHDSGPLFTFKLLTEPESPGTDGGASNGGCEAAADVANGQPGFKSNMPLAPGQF
Description: Inhibitory concentration against alpha adrenergic receptor

The next experiment deals with Thromboxane-A synthase (Homo sapiens, UniProt P24557).
Chain of Thromboxane-A synthase (P24557 whole entry): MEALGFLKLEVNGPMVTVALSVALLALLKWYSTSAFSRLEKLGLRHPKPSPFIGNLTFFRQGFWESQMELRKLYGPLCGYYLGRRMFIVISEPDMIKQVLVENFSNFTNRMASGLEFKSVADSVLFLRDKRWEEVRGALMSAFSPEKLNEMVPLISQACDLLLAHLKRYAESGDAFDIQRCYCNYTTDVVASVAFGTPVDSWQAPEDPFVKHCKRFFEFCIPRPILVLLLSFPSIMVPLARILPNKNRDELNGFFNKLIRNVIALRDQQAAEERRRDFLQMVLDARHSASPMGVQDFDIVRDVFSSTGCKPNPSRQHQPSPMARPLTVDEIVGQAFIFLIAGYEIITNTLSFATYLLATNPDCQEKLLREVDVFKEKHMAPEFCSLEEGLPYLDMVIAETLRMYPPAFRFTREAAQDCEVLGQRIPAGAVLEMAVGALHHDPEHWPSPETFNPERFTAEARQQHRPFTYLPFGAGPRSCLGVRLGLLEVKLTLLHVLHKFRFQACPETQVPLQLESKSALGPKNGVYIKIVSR
Experiment [3] addresses T3, Peroxisome proliferator-activated receptor gamma (Homo sapiens, UniProt P37231).
T3 sequence (P37231 whole entry): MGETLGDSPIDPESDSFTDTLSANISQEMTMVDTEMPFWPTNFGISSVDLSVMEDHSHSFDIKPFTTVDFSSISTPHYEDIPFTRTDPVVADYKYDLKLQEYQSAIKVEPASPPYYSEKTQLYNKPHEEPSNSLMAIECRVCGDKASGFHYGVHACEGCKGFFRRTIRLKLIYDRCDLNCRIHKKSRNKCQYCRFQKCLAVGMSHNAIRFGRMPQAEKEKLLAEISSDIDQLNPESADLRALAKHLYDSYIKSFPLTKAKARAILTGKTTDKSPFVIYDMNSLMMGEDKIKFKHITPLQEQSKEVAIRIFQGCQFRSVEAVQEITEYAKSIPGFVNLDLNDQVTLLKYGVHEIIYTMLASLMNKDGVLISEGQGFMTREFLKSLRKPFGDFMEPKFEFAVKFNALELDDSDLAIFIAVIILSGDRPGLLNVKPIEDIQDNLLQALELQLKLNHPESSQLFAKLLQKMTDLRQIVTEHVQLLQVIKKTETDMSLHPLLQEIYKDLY
Description: Binding affinity towards peroxisome proliferator activated receptor gamma

Experiment [4] deals with T4, Peroxisome proliferator-activated receptor alpha (Homo sapiens, UniProt Q07869).
T4 sequence (Q07869 whole entry): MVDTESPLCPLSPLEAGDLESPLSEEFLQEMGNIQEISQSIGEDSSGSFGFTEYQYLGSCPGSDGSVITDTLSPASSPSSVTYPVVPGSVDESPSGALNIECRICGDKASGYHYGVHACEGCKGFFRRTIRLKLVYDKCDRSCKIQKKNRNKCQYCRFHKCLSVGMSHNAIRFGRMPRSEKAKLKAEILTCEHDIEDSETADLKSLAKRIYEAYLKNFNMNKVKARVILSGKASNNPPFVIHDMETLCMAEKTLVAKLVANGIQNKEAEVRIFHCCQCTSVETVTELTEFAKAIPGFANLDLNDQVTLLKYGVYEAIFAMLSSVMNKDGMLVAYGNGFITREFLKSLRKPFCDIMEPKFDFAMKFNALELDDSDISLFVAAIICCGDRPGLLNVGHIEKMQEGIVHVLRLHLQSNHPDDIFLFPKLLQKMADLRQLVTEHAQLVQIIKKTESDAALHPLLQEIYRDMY
Description: Binding affinity towards peroxisome proliferator activated receptor alpha

Experiment [5] deals with T5, Type-1 angiotensin II receptor (Homo sapiens, UniProt P30556).
T5 sequence (P30556 whole entry): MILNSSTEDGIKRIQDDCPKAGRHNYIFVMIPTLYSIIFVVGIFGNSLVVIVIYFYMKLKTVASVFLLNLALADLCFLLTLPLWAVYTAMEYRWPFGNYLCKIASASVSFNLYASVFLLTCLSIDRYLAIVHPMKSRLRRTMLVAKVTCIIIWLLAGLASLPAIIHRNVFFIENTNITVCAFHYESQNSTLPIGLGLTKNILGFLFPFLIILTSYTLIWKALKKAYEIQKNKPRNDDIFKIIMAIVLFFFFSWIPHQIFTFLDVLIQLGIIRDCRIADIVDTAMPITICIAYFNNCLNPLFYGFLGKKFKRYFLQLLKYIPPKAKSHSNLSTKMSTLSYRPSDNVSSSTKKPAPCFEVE
Description: (§1) Inhibitory concentration against angiotensin II receptor, type 1

In experiment [6] the target is T6, Type-2 angiotensin II receptor (Homo sapiens, UniProt P50052).
T6 sequence (P50052 whole entry): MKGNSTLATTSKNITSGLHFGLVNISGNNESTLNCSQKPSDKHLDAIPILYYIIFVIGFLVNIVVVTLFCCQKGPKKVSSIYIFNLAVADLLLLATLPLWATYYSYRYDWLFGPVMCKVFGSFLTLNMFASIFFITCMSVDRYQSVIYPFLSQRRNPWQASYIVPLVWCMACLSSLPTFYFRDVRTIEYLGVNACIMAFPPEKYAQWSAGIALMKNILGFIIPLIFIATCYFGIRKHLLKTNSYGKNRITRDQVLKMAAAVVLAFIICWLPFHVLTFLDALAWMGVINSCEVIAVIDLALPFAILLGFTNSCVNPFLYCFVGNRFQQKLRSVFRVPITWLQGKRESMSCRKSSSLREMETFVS
Description: Inhibitory concentration against angiotensin II receptor, type 2

The target in experiment [7] is T5, Type-1 angiotensin II receptor. The source holds these as a separate data set.
Description: as §1
The target of another experiment is T7, Endothelin-1 receptor (Homo sapiens, UniProt P25101).
T7 sequence (P25101 whole entry): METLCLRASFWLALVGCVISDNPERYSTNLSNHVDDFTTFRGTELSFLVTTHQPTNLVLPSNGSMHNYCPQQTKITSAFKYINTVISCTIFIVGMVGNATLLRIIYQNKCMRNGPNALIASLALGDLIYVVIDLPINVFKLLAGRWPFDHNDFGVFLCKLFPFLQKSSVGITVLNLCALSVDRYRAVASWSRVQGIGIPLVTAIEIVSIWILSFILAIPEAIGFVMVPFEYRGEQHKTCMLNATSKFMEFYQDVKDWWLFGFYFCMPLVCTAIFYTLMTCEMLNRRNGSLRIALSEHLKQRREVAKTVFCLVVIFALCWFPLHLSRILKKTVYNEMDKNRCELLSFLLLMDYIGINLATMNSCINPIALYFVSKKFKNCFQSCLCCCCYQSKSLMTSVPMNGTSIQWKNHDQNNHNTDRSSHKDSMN

Experiment [8] deals with T8, Polyunsaturated fatty acid 5-lipoxygenase (Homo sapiens, UniProt P09917).
T8 sequence (P09917 whole entry): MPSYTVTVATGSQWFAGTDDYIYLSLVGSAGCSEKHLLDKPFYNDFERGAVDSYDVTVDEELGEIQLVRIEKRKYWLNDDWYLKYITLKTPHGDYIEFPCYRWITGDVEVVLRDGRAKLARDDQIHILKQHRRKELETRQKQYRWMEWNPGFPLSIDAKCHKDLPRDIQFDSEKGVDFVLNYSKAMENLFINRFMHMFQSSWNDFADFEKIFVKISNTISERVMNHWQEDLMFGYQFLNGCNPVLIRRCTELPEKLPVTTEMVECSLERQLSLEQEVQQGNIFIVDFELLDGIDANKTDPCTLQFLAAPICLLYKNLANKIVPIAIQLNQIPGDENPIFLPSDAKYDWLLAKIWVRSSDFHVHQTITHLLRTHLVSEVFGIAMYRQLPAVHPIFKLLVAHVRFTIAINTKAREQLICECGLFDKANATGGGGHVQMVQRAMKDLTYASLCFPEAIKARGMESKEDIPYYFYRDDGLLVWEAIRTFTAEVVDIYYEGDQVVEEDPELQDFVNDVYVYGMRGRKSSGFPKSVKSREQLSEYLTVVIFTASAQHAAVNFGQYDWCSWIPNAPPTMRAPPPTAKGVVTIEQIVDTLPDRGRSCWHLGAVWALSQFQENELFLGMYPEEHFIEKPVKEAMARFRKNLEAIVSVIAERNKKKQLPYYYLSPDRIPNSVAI
Description: Inhibitory concentration against arachidonate 5-lipoxygenase

Chain of Prostaglandin G/H synthase 1 (P23219 whole entry): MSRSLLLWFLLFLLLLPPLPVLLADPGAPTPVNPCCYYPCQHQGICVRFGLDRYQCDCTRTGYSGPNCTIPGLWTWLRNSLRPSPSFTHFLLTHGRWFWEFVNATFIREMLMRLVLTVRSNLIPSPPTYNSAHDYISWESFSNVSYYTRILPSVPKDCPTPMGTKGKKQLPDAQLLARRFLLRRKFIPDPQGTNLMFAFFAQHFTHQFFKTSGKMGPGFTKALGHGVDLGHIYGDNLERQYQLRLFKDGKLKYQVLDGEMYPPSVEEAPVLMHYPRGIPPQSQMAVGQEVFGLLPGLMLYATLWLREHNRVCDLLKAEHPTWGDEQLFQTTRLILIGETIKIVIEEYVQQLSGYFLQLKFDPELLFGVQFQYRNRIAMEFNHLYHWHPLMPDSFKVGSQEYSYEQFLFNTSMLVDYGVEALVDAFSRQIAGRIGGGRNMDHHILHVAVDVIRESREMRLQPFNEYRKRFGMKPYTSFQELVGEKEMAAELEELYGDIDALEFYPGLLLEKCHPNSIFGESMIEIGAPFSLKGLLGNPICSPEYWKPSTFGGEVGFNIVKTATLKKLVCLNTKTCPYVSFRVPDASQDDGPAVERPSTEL
Description for Endothelin-1 receptor: Inhibitory concentration against endothelin receptor type A
Description for Histamine H1 receptor: Inhibition constant against histamine H1 receptor
Description for Thromboxane A2 receptor: Inhibition constant against thromboxane A2 receptor to prostaglandin H2 receptor
Description for Thromboxane-A synthase: Inhibitory concentration against thromboxane A2 synthase

What is called pIC50 is −log10 of the IC50, conventionally taken in molar units. Lower therefore signals a large IC50. Take `COC1(c2cc(F)cc(OCc3cc(-c4ccccc4)n(-c4ccc(S(C)(=O)=O)cc4)n3)c2)CCOCC1`: in experiment [1], the pIC50 is less than 8.00.
In general, pKi refers to the negative decadic logarithm of the Ki, by convention in mol/L. A higher pKi goes with a low Ki. `CN(C)C/C=C1\c2ccccc2COc2ccc(CC(=O)O)cc21`: the figures for the pKi at Thromboxane A2 receptor and at Histamine H1 receptor were less than 6.00 and 7.96, respectively.
What is called IC50 is the point on the concentration scale where inhibition reaches its midpoint. In experiment [2], `O=C(CN1CCN(Cc2ccc(Cl)cc2)CC1)N1CCc2ccccc21` showed a half-inhibitory concentration (IC50) of 88 nM.
For `Cc1c(Cc2ccncc2)n(CCNS(=O)(=O)c2ccc(F)cc2)c2ccc(CCC(=O)O)cc12`, the pIC50 against Thromboxane-A synthase is 7.11.
In the case of `Cc1oc(-c2ccccc2)nc1CCOc1ccc(OC(C)(C)C(=O)O)cc1`, the pIC50 in experiment [3] was 5.59; in [4] it was 5.76.
Consider `O=C(O)c1ccc2c(c1)/C(=C/Cn1cnc3ccccc31)c1ccccc1CO2`, for which the pKi at Thromboxane A2 receptor is 7.82.
Turning to `CCCCCN(C(=O)c1ccccc1)c1ccc2nc(CCC)n(Cc3ccc(-c4ccccc4-c4nn[nH]n4)cc3)c(=O)c2c1`, the pIC50 was 8.77 in experiment [5] and 9.15 in [6].
In the case of `CCCCC1=NC2(CCCC2)C(=O)N1Cc1ccc(-c2ccccc2S(=O)(=O)Nc2noc(C)c2C)c(COCC)c1`, the pKi in [7] is 9.10; on Endothelin-1 receptor, 8.03.
Take `O=C1Cc2cc(CCN3CCN(c4nsc5ccccc45)CC3)c(Cl)cc2N1` [ZIPRASIDONE]: the IC50 in experiment [2] is listed as 11 nM.
As to `CC1(C)Cc2c(-c3ccccc3)c(-c3ccc(Cl)cc3)c(CC(=O)O)n2C1` [LICOFELONE], the pIC50 in experiment [1] was 6.80; in experiment [8] it was 6.68.
For `Cc1onc(NS(=O)(=O)c2ccccc2-c2ccc(-c3ncco3)cc2CN(C)C(=O)CC(C)(C)C)c1C` [EDONENTAN], the pKi in experiment [7] is less than 8.00; on Endothelin-1 receptor it was 8.00.
`O=C(O)Cc1ccc2c(c1)C(=CCN1CCC(Cc3ccccc3)CC1)c1ccccc1CO2`: the pKi was 6.13 on Thromboxane A2 receptor and 7.70 on Histamine H1 receptor.
As to `CC(Cc1ccccc1)(Oc1ccc(Cl)cc1)C(=O)O` (stereo not given), the figures for the negative-log IC50 (pIC50) in [3] and in experiment [4] were 5.41 and 5.36, respectively.
`CNc1nc2c(Cc3cccnc3)c(C)c(O)c(C)c2s1`: the pIC50 was 7.05 at Thromboxane-A synthase and 7.00 in [8].
As for `CCCCc1nc2ccc(NC(=O)N(C)C(C)C)cc2c(=O)n1Cc1ccc(-c2ccccc2-c2nnn[nH]2)cc1`, the results for the pIC50 in experiment [5] and in experiment [6] were 10.00 and 5.35, respectively.
